The values that follow come from paper PMC9673926, “Nucleotide binding as an allosteric regulatory mechanism for Akkermansia muciniphila β-N-acetylhexosaminidase Am2136” (Gut Microbes, 2022).

Molecules are shown by their SMILES. Substitutions are numbered along the chain they refer to.

The target in one test is T1, Am2136 R256A (Akkermansia muciniphila, UniProt B2UPR7, R256A).
T1 sequence (B2UPR7 20-756 R256A): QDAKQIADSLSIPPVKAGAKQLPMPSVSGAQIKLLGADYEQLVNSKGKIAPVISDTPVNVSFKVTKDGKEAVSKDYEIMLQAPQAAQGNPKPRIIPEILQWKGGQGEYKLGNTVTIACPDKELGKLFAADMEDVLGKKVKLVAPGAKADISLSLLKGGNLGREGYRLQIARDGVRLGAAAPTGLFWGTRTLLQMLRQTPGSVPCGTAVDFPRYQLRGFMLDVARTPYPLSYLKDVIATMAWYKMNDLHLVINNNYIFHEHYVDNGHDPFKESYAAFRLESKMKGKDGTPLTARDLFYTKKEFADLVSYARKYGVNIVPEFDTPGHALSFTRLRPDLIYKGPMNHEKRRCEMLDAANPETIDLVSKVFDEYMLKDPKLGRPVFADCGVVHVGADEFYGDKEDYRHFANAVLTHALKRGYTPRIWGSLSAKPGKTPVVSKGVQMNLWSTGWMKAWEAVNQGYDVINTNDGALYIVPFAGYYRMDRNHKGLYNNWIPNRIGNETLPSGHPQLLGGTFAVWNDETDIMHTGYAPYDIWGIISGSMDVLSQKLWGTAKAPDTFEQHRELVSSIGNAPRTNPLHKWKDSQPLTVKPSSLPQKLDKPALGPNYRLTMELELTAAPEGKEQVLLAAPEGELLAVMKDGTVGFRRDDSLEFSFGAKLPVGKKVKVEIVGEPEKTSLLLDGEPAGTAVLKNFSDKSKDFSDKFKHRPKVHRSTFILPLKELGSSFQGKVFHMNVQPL
As to the kind of experiment: GDP regulated enzyme activity assay, mutant. The settings on record: 1 mM GDP, substrate pNP-β-GlcNAc.

The target in another test is T2, Am2136 R592A (Akkermansia muciniphila, UniProt B2UPR7, R592A).
T2 sequence (B2UPR7 20-756 R592A): T1 sequence (B2UPR7 20-756 R256A) with A237R, R573A
Description: Nucleotide binding affinity by intrinsic fluorescence, mutant. The arrangement: The coding region (residue Q20-L756) of Am2136 without signal peptide was based on UniProt; 6XHis (N); made in house; host or cells: E. coli BL21 (DE3). The protocol:
(§1) The nucleotide binding ability was determined on Fluorescence Spectrometer Duetta (HORIBA) by measuring the change of peak intensity. The fluorescence was excited at 286 nm and emitted at 336 nm. And the measurement was processed under 400 V voltage with 2.5 nm excitation slit and 5 nm emission slit. The 120 μL reaction mixture contains 0–550 μM nucleotide, 5 μM proteins, 25 mM Tris pH 8.0 and 150 mM NaCl. The sample was incubated at 4°C for 5 min before testing.

Another test addresses T3, Am2136 Y327F+Y331F (Akkermansia muciniphila, UniProt B2UPR7, Y327F/Y331F).
T3 sequence (B2UPR7 20-756 Y327F/Y331F): T1 sequence (B2UPR7 20-756 R256A) with A237R, Y308F, Y312F
The description is as above. The arrangement: The coding region (residue Q20-L756) of Am2136 without signal peptide was based on UniProt; 6XHis (N); made in house; host or cells: E. coli BL21 (DE3). The protocol:
as §1

As for `Nc1nc2c(ncn2[C@@H]2O[C@H](COP(=O)(O)OP(=O)(O)O)[C@@H](O)[C@H]2O)c(=O)[nH]1` [GDP], at Am2136 R256A, the maximal velocity (Vmax) turned out to be 465 ± 15 µmol/min. For the same compound, the Kd at Am2136 R592A is 120 ± 5.82 µM; on Am2136 Y327F+Y331F it was 175 ± 13.7 µM.
